Source: PMC7444556, “MrpH, a new class of metal-binding adhesin, requires zinc to mediate biofilm formation” (PLoS Pathogens, 2020)
Where a name gives a salt, the structure may show the parent alone. Read-outs that look alike come from different tables or passages of the source.

Experiments:
Format in all cases: binding
MrpH159 (MrpHntd) [1] = target: T1, MrpH159 (MrpHntd) (Proteus mirabilis, UniProt B4EUK6); settings: 10 mM ligand, 10 uM protein, 24 mM NaCl, 6 mM HEPES pH 7.5, reference storage buffer 65.2±0.30 °C
T1 construct: gene mrpH; pEXP5-CT/TOPO (His-tag, Ni-NTA, no cleavage told); expressed in E. coli BL21-AI
T1 sequence (B4EUK6 entry or part of it): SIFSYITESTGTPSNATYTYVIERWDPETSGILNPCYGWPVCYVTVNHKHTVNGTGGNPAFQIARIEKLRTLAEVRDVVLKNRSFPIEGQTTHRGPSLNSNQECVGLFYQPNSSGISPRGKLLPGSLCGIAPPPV
Excerpt: thermal shift assay (SYPRO Orange) on MrpH159 (MrpHntd)

MrpH159 (MrpHntd) [2] = target: T1, MrpH159 (MrpHntd); experiment: X-ray crystal structure, […] Å; settings: side chain carboxyl ligates Zn2+; ligand not added, picked up during expression, assigned from electron density
MrpH153 (MrpHntd) = target: T2, MrpH153 (MrpHntd) (Proteus mirabilis, UniProt B4EUK6); experiment: thermal shift assay; settings: 10 mM ammonium tartrate pH 7.0, 100 mM NaCl; reference 66.7 ± 0.6 °C in 10 mM HEPES pH 7.5
T2 construct: gene mrpH; C-terminal His-tag kept; expressed in E. coli
T2 sequence (B4EUK6 entry or part of it): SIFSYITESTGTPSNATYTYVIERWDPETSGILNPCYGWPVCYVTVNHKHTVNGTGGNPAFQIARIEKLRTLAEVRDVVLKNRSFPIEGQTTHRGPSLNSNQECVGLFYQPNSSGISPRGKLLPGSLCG

For `CC(=O)O` [Sodium acetate], the “<Tm> (°C)^a” value (MrpH159 (MrpHntd) [1]) was 76.3±0.56 °C.
`O=C(O)CC(O)(CC(=O)O)C(=O)O` [Sodium citrate] was tested, and the “<Tm> (°C)^a” value (MrpH159 (MrpHntd) [1]; citrate pH not stated) was 73.3±0.64 °C.
For `O=CO` [Sodium formate], the “<Tm> (°C)^a” value (MrpH159 (MrpHntd) [1]) was 68.4±0.75 °C.
`N[C@@H](CCC(=O)O)C(=O)O` [glutamic acid] was tested, and the “<Tm> (°C)^a” value (MrpH159 (MrpHntd) [1]) was 73.1±0.21 °C and the “X-ray crystal structure, 1.75 Å” value (MrpH159 (MrpHntd) [2]) was “we have assigned glutamic acid as the bound ligand in the MrpH159 structure”.
`O=C(O)C(O)C(O)C(=O)O` (stereo not shown) [tartrate] was tested, and the Tm (MrpH153 (MrpHntd)) was 78.5 ± 0.1 °C and the “<Tm> (°C)^a” value (MrpH159 (MrpHntd) [1]) was 80.1±0.70 °C.
